Consider nine molecules from article PMC4076215, “Nickel(II) Complex of Polyhydroxybenzaldehyde N4-Thiosemicarbazone Exhibits Anti-Inflammatory Activity by Inhibiting NF-κB Transactivation” (PLoS ONE, 2014).

One experiment in a line: ORAC antioxidant assay. The class given is physicochemical. On the procedure:
ORAC assay was performed based on reported procedures with slight modifications. Chemicals used such as fluorescein sodium salt, AAPH (2,2′-Azobis(2-methylpropionamidine) dihydrochloride), quercetin dehydrate and trolox ((±)-6-Hydroxy-2,5,7,8-tetramethylchromane-2-carboxylic acid) were purchased from Sigma-Aldrich. Compounds were diluted to a final concentration of 100 µg/ml, with total reaction volume of 200 µl. The assay was performed in a 96-well black microplate, with 25 µl of samples, standard (trolox), blank (solvent/PBS) or positive control (quercetin). Subsequently, 150 µl of working fluorescein solution was added to each well. The plate was incubated at 37°C for at least 5 min. Then, 25 µl of AAPH working solution was then added to the wells to make a total volume of 200 µl. […] Data were collected every 2 min for a duration of 2 h, and were analyzed by calculating the differences of area under fluorescence decay curve (AUC) of samples and blank. The values were expressed as Trolox equivalent (TE).
ROS may amplify inflammatory responses via up-regulation or activation of certain genes/transcription factors, such as NF-κB. […] Therefore, we conducted ORAC assays to investigate the antioxidant capacity of complex 5. The ORAC assay uses peroxyl radical as pro-oxidant and the antioxidant activity is quantified via area under curve (AUC). We included quercetin, a known antioxidant, as a positive control.

A further experiment relates to RAW264.7 cells. Briefly: Cell proliferation (MTT) assay, RAW264.7. Particulars: for IC50 (cell viability, MTT): RAW264.7 cells, 48 h treatment; for IC50: Mus musculus, RAW264.7, 48 h, read-out: IC50 (cell viability, MTT).
A further experiment concerns HeLa S3 cells. Briefly: Cell proliferation (MTT) assay, HeLa S3. Particulars: for IC50 (cell viability, MTT): HeLa S3 cells, 48 h treatment; for IC50: Homo sapiens, HeLa S3, 48 h, read-out: IC50 (cell viability, MTT).
Experiment [1] relates to carrageenan-induced paw edema. Briefly: Carrageenan-induced paw edema mouse model. Particulars: 2.0 mg/kg i.p., 1 h after carrageenan; control 7.3±0.8 mm. Format: in vivo, C57BL/6 mice. The method, then:
Male C57BL/6 mice at age 8–12 weeks old were from Jackson Laboratories, USA. Mice were administrated intraperitoneally (i.p.) with two different doses of complex 5 (2.5 mg/kg and 5 mg/kg). Negative control groups were i.p. injected with 200 µl of vehicle (50% v/v ethanol). A standard drug 2 mg/kg dexamethasone (Sigma) was included in the study. After 1 h, paw edema was induced by injecting 50 µl of 1% carrageenan (Sigma) through the plantar tissue at the right hind paw of each mouse. The thickness of right paw of each mouse was measured at 1, 3 and 5 h after carrageenan was administered. Four animals per group were tested (n = 4). Quantification of right hind paw thickness were analyzed for statistical significance using Student's t-test. Animals were housed in individually ventilated cages in specific pathogen free facility, Animal Experimental Unit, University of Malaya. All efforts were made to minimize animal suffering and the number of animals used. At the end of the experiment, mice were euthanized by CO2 asphyxiation. Animal work was approved by the Faculty of Medicine Animal Care and Use Committee (FOMIACUC) at University of Malaya and reported according to ARRIVE guidelines.
To test the in vivo inhibitory effect of complex 5 on inflammation, we administrated two doses of complex 5 (2.5 mg/kg and 5.0 mg/kg) into C57BL/6 wild type mice through i.p. injection. For a positive control, we performed i.p. injection of 2.0 mg/kg dexamethasone into the mice. After 1 h, paw edema in the mice was induced by injecting 1% carrageenan to the right hind paw. The paw sizes were measured at 1, 3 and 5 h after edema induction. The edema formation at the mice paw was due to inflammatory response causing the accumulation of histamine, serotonin, prostaglandin and other secreted inflammatory mediators.
Male C57BL/6 mice at age of 8-12 weeks old were non-injected or injected i.p. with 2.5 mg/kg or 5.0 mg/kg complex 5, whereas for positive controls, mice were injected i.p. with 2.0 mg/kg dexamethasone. After 1 h, acute inflammation was induced in the right hind paw of each mice by injecting 50 µl of carrageenan. The size of the paw were measured after (A) 1 h or, (B) 1, 3 and 5 h post carrageenan injection. Shown were mean ±SD (n = 4). Statistical analysis was performed with Student's t-test.

The test system of experiment [2] is NF-κB p65 nuclear translocation. Briefly: NF-κB p65 immunofluorescence staining, LPS-stimulated RAW264.7. Format: cell-based. Particulars: RAW264.7, 25 µg/ml pre-treatment 4 h, LPS 1 h. On the procedure:
NF-κB Activation Kits (Thermo Scientific) were used as previously described. Cells were pretreated with compounds for 4 h before being stimulated with lipopolysaccharide (LPS) ortumour necrosis factor α (TNFα) for 1 h. Cells were then fixed and permeabilized before probing with NF-κB p65 antibody for 1 h. Staining solution (containing DyLight 488 Goat Anti-Rabbit and Hoechst dye) was then added and incubated for 1 h. The plate with stained cells was evaluated using a Cellomics ArrayScan HCS Reader (Cellomics, PA, USA). Data were captured, extracted and analyzed with ArrayScan II Data Acquisition and Data Viewer version 3.0 (Cellomics).
NF-κB acts as a central mediator of inflammatory responses and compounds that inhibit NF-κB activation are potential anti-inflammatory agents. To evaluate this, we performed immunofluorescence staining of NF-κB p65. […] In response to LPS stimulation, NF-κB p65 translocated from cytoplasm into the nucleus, implying NF-κB activation (Figure 3). […] Moreover, we observed that complex 6–8 required higher concentration (>50 µg/ml) to elicit similar inhibitory effect (data not shown).
Figure 3 Effect of N4-substituteted thiosemicarbazone complexes on LPS-induced NF-κB nuclear transloction in RAW264.7 macrophage cells. Staining of Hoechst (nucleus) and NF-κB in RAW264.7 cells. […]

SMILES strings stand for the structures. In brackets after ≈: the same amount, converted by molar mass. Some results are limits rather than exact numbers.

Method for HeLa S3 cells: (§1) A total number of 1.0×10^4 cells per well were seeded into a 96-well plate and incubated overnight at 37°C in 5% CO2. The next day, the cells were treated with a two-fold serial dilution of compounds. MTT assays were performed as described [27]. After 48 h, (4,5-dimethylthiazol-2-yl-2,5-diphenyltetrazoliumbromide) was added at 2 mg/ml. After 3 h of incubation at 37°C in 5% CO2, DMSO was added to dissolve the formazan crystals. The plates were then read in Chameleon multitechnology microplate reader (Hidex, Turku, Finland) at 570 nm absorbance. The ratio of the absorbance of treated cells to the absorbance of DMSO-treated control cells was determined as percentage cell viability.
(§2) To examine whether synthesized Ni(II) thiosemicarbazone ligands or Ni(II)-phosphine complexes were cytotoxic, we treated RAW264.7 (leukemic monocyte macrophage) and HeLa S3 (cervical adenocarcinoma) cells with these compounds for 48 h. The cell viability was determined with MTT assays [33].
Method for RAW264.7 cells: as §1, §2

As for `O=c1c(O)c(-c2ccc(O)c(O)c2)oc2cc(O)cc(O)c12` [Quercetin, quercetin dehydrate, reference compound], in “ORAC antioxidant assay”, the “Antioxidant capacity, Trolox equivalent” value is 24.41±0.35 µM TE per 100 µM.

Take `CNC(=S)NN=Cc1cccc(O)c1[O-].[Cl-].[Ni+2].c1ccc(P(c2ccccc2)c2ccccc2)cc1` [complex 6, (6-Hydroxy-2-{[2-(N-methylcarbamothiolyl)hydrazin-1-ylidene-[kappa]2N1,S]methyl}phenolato-[kappa]O1)(triphenylphosphane-[kappa]P)nickel(II) chloride]: in the experiment “ORAC antioxidant assay”, the “Antioxidant capacity, Trolox equivalent” value is 15.65±0.89 µM TE per 100 µM. For the same molecule, the “IC50 (cell viability, MTT)” value with RAW264.7 cells came out at 37.73 ± 3.62 µg/mL; with HeLa S3 cells, 77.55 ± 1.56 µg/mL.

For `Oc1cccc2c1[O][Ni-2]1([P+](c3ccccc3)(c3ccccc3)c3ccccc3)[S]C(Nc3ccccc3)=N[N+]1=C2` (stereo not drawn) [complex 7], the “Antioxidant capacity, Trolox equivalent” value in “ORAC antioxidant assay” was determined as 9.37±1.14 µM TE per 100 µM. Besides, the figures for the “IC50 (cell viability, MTT)” value in the experiment with RAW264.7 cells and in the experiment with HeLa S3 cells were 42.44 ± 4.17 µg/mL and over 100 µg/mL, respectively.

In the case of `CCNC1=N[N+]2=Cc3cccc(O)c3[O][Ni-2]2([P+](c2ccccc2)(c2ccccc2)c2ccccc2)[S]1` (stereo not drawn) [complex 8], the “Antioxidant capacity, Trolox equivalent” value in “ORAC antioxidant assay” was determined as 13.34±1.49 µM TE per 100 µM. In addition, the entries for the “IC50 (cell viability, MTT)” value in the experiment with RAW264.7 cells and in the experiment with HeLa S3 cells were 56.31 ± 3.86 µg/mL and over 100 µg/mL, respectively.

For the molecule `C[C@@H]1C[C@H]2[C@@H]3CCC4=CC(=O)C=C[C@]4(C)[C@@]3(F)[C@@H](O)C[C@]2(C)[C@@]1(O)C(=O)CO` [dexamethasone, reference compound], the Paw size in experiment [1] was determined as 4.6±0.4 mm.

On to `NC(=S)N/N=C/c1cccc(O)c1O` [ligand 1], for which, in “ORAC antioxidant assay”, the “Antioxidant capacity, Trolox equivalent” value stood at 5.18±0.05 µM TE per 100 µM. Moreover, the half-inhibitory concentration (IC50) (usually the concentration needed to halve the response being measured) is 22.8 ± 1.67 µg/mL (≈ 108 µM) in the experiment on RAW264.7 cells and over 100 µg/mL in the experiment with HeLa S3 cells. Further, the “Inhibition of LPS-mediated NF-κB p65 nuclear translocation” value in experiment [2] is “did not affect NF-κB translocation”.

Regarding `CNC(=S)N/N=C/c1cccc(O)c1O` [ligand 2], the “Antioxidant capacity, Trolox equivalent” value in the experiment “ORAC antioxidant assay” turned out to be 8.23±0.43 µM TE per 100 µM. Moreover, the IC50 was 27.8 ± 0.96 µg/mL (≈ 124 µM) in the experiment on RAW264.7 cells and over 100 µg/mL in the experiment with HeLa S3 cells.

As for `Oc1cccc(/C=N/NC(=S)Nc2ccccc2)c1O` [ligand 3], the “Antioxidant capacity, Trolox equivalent” value in the experiment “ORAC antioxidant assay” came out at 9.71±0.77 µM TE per 100 µM. Also, the IC50 in the experiment on RAW264.7 cells is 31.5 ± 1.82 µg/mL (≈ 110 µM); with HeLa S3 cells it was over 100 µg/mL.

Regarding `CCNC(=S)N/N=C/c1cccc(O)c1O` [ligand 4], in “ORAC antioxidant assay”, the “Antioxidant capacity, Trolox equivalent” value is given as 7.54±1.61 µM TE per 100 µM. Moreover, the IC50 in the experiment with RAW264.7 cells stood at 19.4 ± 1.07 µg/mL (≈ 80.9 µM); in the experiment with HeLa S3 cells it was 87.2 ± 1.81 µg/mL (≈ 364 µM).
